ChEMBL document CHEMBL1154034, “Piperazinyl-glutamate-pyridines as potent orally bioavailable P2Y12 antagonists for inhibition of platelet aggregation” (Bioorg Med Chem Lett, 2009)

target: P2Y purinoceptor 12 (Homo sapiens, UniProt Q9H244); experiment: Binding affinity to human recombinant P2Y12 receptor expressed in CHO cells; type: cell-based
Sequence (Q9H244 whole entry): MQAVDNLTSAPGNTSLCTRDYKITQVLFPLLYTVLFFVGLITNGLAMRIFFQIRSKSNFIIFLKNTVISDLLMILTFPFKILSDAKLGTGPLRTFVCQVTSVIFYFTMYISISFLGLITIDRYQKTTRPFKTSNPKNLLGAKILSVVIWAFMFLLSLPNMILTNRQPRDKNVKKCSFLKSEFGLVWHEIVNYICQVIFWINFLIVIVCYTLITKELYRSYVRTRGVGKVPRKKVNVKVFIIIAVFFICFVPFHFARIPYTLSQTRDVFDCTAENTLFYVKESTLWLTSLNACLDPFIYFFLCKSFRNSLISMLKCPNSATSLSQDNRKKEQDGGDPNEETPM

`CCCCCCOC(=O)N1CCN(C(=O)[C@H](CCC(=O)O)NC(=O)c2cc(N(C)CCS(C)(=O)=O)cc(-c3ccccc3)n2)CC1` and `CCOC(=O)N1CCN(C(=O)[C@H](CCC(=O)O)NC(=O)c2cc(N(C)CCS(C)(=O)=O)cc(-c3ccccc3)n2)CC1` are within 1.5-fold of each other in Ki: 36 nM for the first, 48 nM for the second.

Compared with `CCOC(=O)N1CCN(C(=O)[C@H](CCC(=O)O)NC(=O)c2cc(NCCN(C)C)cc(-c3ccccc3)n2)CC1`, `CCCNc1cc(C(=O)N[C@@H](CCC(=O)O)C(=O)N2CCN(C(=O)OCC)CC2)nc(-c2ccccc2)c1` is 4.2-fold lower in Ki: 270 nM for the first, 64 nM for the second. The second binds more tightly here.

`CCOC(=O)N1CCN(C(=O)[C@H](CCC(=O)O)NC(=O)c2cc(OCc3ccccc3)cc(-c3ccccc3)n2)CC1` and `CCOC(=O)N1CCN(C(=O)[C@H](CCC(=O)O)NC(=O)c2cc(NCc3ccccc3)cc(-c3ccccc3)n2)CC1` are within 1.5-fold of each other in Ki: 28 nM for the first, 26 nM for the second.

Going from `CCCCCOC(=O)N1CCN(C(=O)[C@H](CCC(=O)O)NC(=O)c2cc(OCCO)cc(-c3ccccc3)n2)CC1` to `CCCCOC(=O)N1CCN(C(=O)[C@H](CCC(=O)O)NC(=O)c2cc(OCCO)cc(-c3ccccc3)n2)CC1`, the Ki falls from 32 nM to 21 nM (1.5-fold). The second binds more tightly here.

`CCCCOC(=O)N1CCN(C(=O)[C@H](CCC(=O)O)NC(=O)c2cc(OCCCC)cc(-c3ccccc3)n2)CC1` and `CCCCCOC(=O)N1CCN(C(=O)[C@H](CCC(=O)O)NC(=O)c2cc(OCCCC)cc(-c3ccccc3)n2)CC1` are within 1.5-fold of each other in Ki: 36 nM for the first, 49 nM for the second.

Going from `CCCCOC(=O)N1CCN(C(=O)[C@H](CCC(=O)O)NC(=O)c2cc(OC3CCNCC3)cc(-c3ccccc3)n2)CC1` to `CCOC(=O)N1CCN(C(=O)[C@H](CCC(=O)O)NC(=O)c2cc(OC3CCNCC3)cc(-c3ccccc3)n2)CC1`, the Ki rises from 12 nM to 68 nM (5.7-fold).

Going from `Cc1cccc(N2CCN(C(=O)[C@H](CCC(=O)O)NC(=O)c3cccc(-c4ccccc4)n3)CC2)c1` to `Cc1cccc(N2CCN(C(=O)[C@H](CCC(=O)O)NC(=O)c3cc(-c4ccccc4)cc(-c4ccccc4)n3)CC2)c1`, the Ki falls from over 5700 nM to 5.7 nM. The second binds more tightly here.

`CCOC(=O)N1CCN(C(=O)[C@H](CCC(=O)O)NC(=O)c2cc(OCCOC)cc(-c3ccccc3)n2)CC1` and `C=CCOC(=O)N1CCN(C(=O)[C@H](CCC(=O)O)NC(=O)c2cc(OCCOC)cc(-c3ccccc3)n2)CC1` are within 1.5-fold of each other in Ki: 92 nM for the first, 95 nM for the second.

Compared with `CCOC(=O)N1CCN(C(=O)[C@H](CCC(=O)O)NC(=O)c2cc(NCCO)cc(-c3ccccc3)n2)CC1`, `CCOC(=O)N1CCN(C(=O)[C@H](CCC(=O)O)NC(=O)c2cc(NC)cc(-c3ccccc3)n2)CC1` is 3.3-fold lower in Ki: 114 nM for the first, 35 nM for the second.

`CCCCOC(=O)N1CCN(C(=O)[C@H](CCC(=O)O)NC(=O)c2cccc(-c3ccccc3)n2)CC1` and `CCCOC(=O)N1CCN(C(=O)[C@H](CCC(=O)O)NC(=O)c2cccc(-c3ccccc3)n2)CC1` are within 1.5-fold of each other in Ki: 29 nM for the first, 27 nM for the second.

Compared with `CCCCCCCCOC(=O)N1CCN(C(=O)[C@H](CCC(=O)O)NC(=O)c2cccc(-c3ccccc3)n2)CC1`, `CCCCCCCOC(=O)N1CCN(C(=O)[C@H](CCC(=O)O)NC(=O)c2cccc(-c3ccccc3)n2)CC1` is 2-fold lower in Ki: 14 nM for the first, 7 nM for the second. The second binds more tightly here.

Going from `CN(CCS(C)(=O)=O)c1cc(C(=O)N[C@@H](CCC(=O)O)C(=O)N2CCN(C(=O)OCCC3CCCC3)CC2)nc(-c2ccccc2)c1` to `O=C(O)CC[C@H](NC(=O)c1cc(N2CCC(O)CC2)cc(-c2ccccc2)n1)C(=O)N1CCN(C(=O)OCCC2CCCC2)CC1`, the Ki falls from 80 nM to 40 nM (2-fold).

`CCOC(=O)N1CCN(C(=O)[C@H](CCC(=O)O)NC(=O)c2cc(N3CCC(COC)CC3)cc(-c3ccccc3)n2)CC1` and `CCOC(=O)N1CCN(C(=O)[C@H](CCC(=O)O)NC(=O)c2cc(N3CCC(CN)CC3)cc(-c3ccccc3)n2)CC1` are within 1.5-fold of each other in Ki: 18 nM for the first, 14 nM for the second.

Compared with `CCOC(=O)N1CCN(C(=O)[C@H](CCC(=O)O)NC(=O)c2cc(OCCCN)cc(-c3ccccc3)n2)CC1`, `CCOC(=O)N1CCN(C(=O)[C@H](CCC(=O)O)NC(=O)c2cc(OCCCO)cc(-c3ccccc3)n2)CC1` is 3.1-fold lower in Ki: 214 nM for the first, 68 nM for the second. The second binds more tightly here.

`CCOC(=O)N1CCN(C(=O)[C@H](CCC(=O)O)NC(=O)c2cc(N3CCC(N4CCCC4)CC3)cc(-c3ccccc3)n2)CC1` and `CCOC(=O)N1CCN(C(=O)[C@H](CCC(=O)O)NC(=O)c2cc(N3CCC(O)CC3)cc(-c3ccccc3)n2)CC1` are within 1.5-fold of each other in Ki: 34 nM for the first, 42 nM for the second.

Compared with `CCOC(=O)N1CCN(C(=O)[C@H](CCC(=O)O)NC(=O)c2ccccn2)CC1`, `CCOC(=O)N1CCN(C(=O)[C@H](CCC(=O)O)NC(=O)c2cc(OC)cc(-c3ccccc3)n2)CC1` is lower in Ki: over 5400 nM for the first, 96 nM for the second.

Going from `CCCCCCOC(=O)N1CCN(C(=O)[C@H](CCC(=O)O)NC(=O)c2cc(N3CCC(COC)CC3)cc(-c3ccccc3)n2)CC1` to `CCCCCOC(=O)N1CCN(C(=O)C(CCC(=O)O)NC(=O)c2cc(N3CCC(COC)CC3)cc(-c3ccccc3)n2)CC1` (single isomer, unassigned), the Ki rises from 33 nM to 510 nM (15-fold).

First: CCOC(=O)N1CCN(C(=O)[C@H](CCC(=O)O)NC(=O)c2cc(NC3CCOCC3)cc(-c3ccccc3)n2)CC1
Second: CCOC(=O)N1CCN(C(=O)[C@H](CCC(=O)O)NC(=O)c2cc(NCC3CCNCC3)cc(-c3ccccc3)n2)CC1
The Ki of the first is 2.4-fold higher: 455 nM for the first, 190 nM for the second. The second binds more tightly here.

Compared with `CC(C)OC(=O)N1CCN(C(=O)[C@H](CCC(=O)O)NC(=O)c2cc(OC3CCNCC3)cc(-c3ccccc3)n2)CC1`, `C=CCOC(=O)N1CCN(C(=O)[C@H](CCC(=O)O)NC(=O)c2cc(OC3CCNCC3)cc(-c3ccccc3)n2)CC1` is 1.7-fold lower in Ki: 157 nM for the first, 93 nM for the second.

`COCCOc1cc(C(=O)N[C@@H](CCC(=O)O)C(=O)N2CCN(C(=O)OC(C)C)CC2)nc(-c2ccccc2)c1` and `CCCCOc1cc(C(=O)N[C@@H](CCC(=O)O)C(=O)N2CCN(C(=O)OC(C)C)CC2)nc(-c2ccccc2)c1` are within 1.5-fold of each other in Ki: 189 nM for the first, 146 nM for the second.

Going from `CCOC(=O)N1CCN(C(=O)[C@H](CCC(=O)O)NC(=O)c2cc(N(CC)CC)cc(-c3ccccc3)n2)CC1` to `CCCCOc1cc(C(=O)N[C@@H](CCC(=O)O)C(=O)N2CCN(C(=O)OCC)CC2)nc(-c2ccccc2)c1`, the Ki rises from 23 nM to 39 nM (1.7-fold).

Compared with `COC(=O)N1CCN(C(=O)[C@H](CCC(=O)O)NC(=O)c2cccc(-c3ccccc3)n2)CC1`, `CCOC(=O)N1CCN(C(=O)[C@H](CCC(=O)O)NC(=O)c2cc(OCCO)cc(-c3ccccc3)n2)CC1` is 16-fold lower in Ki: 2440 nM for the first, 157 nM for the second.

Compared with `C=CCOC(=O)N1CCN(C(=O)[C@H](CCC(=O)O)NC(=O)c2cc(OCCCC)cc(-c3ccccc3)n2)CC1`, `C=CCOC(=O)N1CCN(C(=O)[C@H](CCC(=O)O)NC(=O)c2cc(OCCO)cc(-c3ccccc3)n2)CC1` is 2.1-fold higher in Ki: 99 nM for the first, 203 nM for the second. The first binds more tightly here.

Compared with `CCCCCOC(=O)N1CCN(C(=O)[C@H](CCC(=O)O)NC(=O)c2cc(N3CCC(O)CC3)cc(-c3ccccc3)n2)CC1`, `CCCCCCOC(=O)N1CCN(C(=O)[C@H](CCC(=O)O)NC(=O)c2cc(N3CCC(CN)CC3)cc(-c3ccccc3)n2)CC1` is 1.6-fold higher in Ki: 11 nM for the first, 18 nM for the second. The first binds more tightly here.

Compared with `CCOC(=O)N1CCN(C(=O)[C@H](CCC(=O)O)NC(=O)c2cc(N3CCC(N)CC3)cc(-c3ccccc3)n2)CC1`, `CCOC(=O)N1CCN(C(=O)[C@H](CCC(=O)O)NC(=O)c2cc(N3CCN(CCN(C)C)CC3)cc(-c3ccccc3)n2)CC1` is 1.7-fold higher in Ki: 27 nM for the first, 47 nM for the second.

Compared with `CCOC(=O)N1CCN(C(=O)[C@H](CCC(=O)O)NC(=O)c2cc(OCC3CCNCC3)cc(-c3ccccc3)n2)CC1`, `CCCCCOC(=O)N1CCN(C(=O)[C@H](CCC(=O)O)NC(=O)c2cc(OCCOC)cc(-c3ccccc3)n2)CC1` is 7.6-fold lower in Ki: 76 nM for the first, 10 nM for the second.

`NCC1CCN(c2cc(C(=O)N[C@@H](CCC(=O)O)C(=O)N3CCN(C(=O)OCCC4CCCC4)CC3)nc(-c3ccccc3)c2)CC1` and `CCOC(=O)N1CCN(C(=O)[C@H](CCC(=O)O)NC(=O)c2cc(OC(CC)C(=O)N(CC)CC)cc(-c3ccccc3)n2)CC1` (some centres undefined) are within 1.5-fold of each other in Ki: 69 nM for the first, 81 nM for the second.
